Experimental data reported in ChEMBL document CHEMBL3885881, “DrugMatrix”.

Species on record: Rattus norvegicus
Test: DrugMatrix - Regimen: Daily Repeat
Format: toxicity, organism-based, Sprague-Dawley
Design: regimen Daily Repeat, gender Male, age 6-8 weeks
Conditions: in vivo, po, route oral GAVAGE, vehicle .5 % CMC; for ABSOLUTE BASOPHIL / ABSOLUTE EOSINOPHIL / ABSOLUTE LYMPHOCYTE / ABSOLUTE MONOCYTE / ABSOLUTE SEGMENTED NEUTROPHIL / BASOPHIL / EOSINOPHIL / ERYTHROCYTE COUNT / HEMATOCRIT / HEMOGLOBIN / LEUKOCYTE COUNT / LYMPHOCYTE / MEAN CORPUSCULAR HEMOGLOBIN / MEAN CORPUSCULAR HEMOGLOBIN CONCENTRATION / MEAN CORPUSCULAR VOLUME / MONOCYTE / NEUTROPHIL / NUCLEATED RED BLOOD CELLS / PLATELET COUNT: tissue Blood; for ALANINE AMINOTRANSFERASE / ALBUMIN / ALKALINE PHOSPHATASE / ASPARTATE AMINOTRANSFERASE / BLOOD UREA NITROGEN / CARBON DIOXIDE / CHLORIDE / CHOLESTEROL / CREATINE PHOSPHOKINASE / CREATININE / GLUCOSE / LACTATE DEHYDROGENASE / LIPASE / PHOSPHORUS / POTASSIUM / SODIUM / TOTAL BILIRUBIN / TOTAL PROTEIN / URIC ACID: tissue Plasma
[1] = 100 mg/kg, 120 h, dose level Low, time 5 day
[2] = 1500 mg/kg, 72 h, dose level High, time 3 day
[3] = 1500 mg/kg, 120 h, dose level High, time 5 day

With CO[C@H]1/C=C/O[C@@]2(C)Oc3c(C)c(O)c4c(c3C2=O)C2=NC3(CCN(CC(C)C)CC3)NC2=C(NC(=O)/C(C)=C\C=C\[C@H](C)[C@H](O)[C@@H](C)[C@@H](O)[C@@H](C)[C@H](OC(C)=O)[C@@H]1C)C4=O [RIFABUTIN] the “ABSOLUTE BASOPHIL” value [1] was 0 CELLS/uL, the “ABSOLUTE EOSINOPHIL” value [1] was 0 CELLS/uL and the “ABSOLUTE LYMPHOCYTE” value [1] was 10855 CELLS/uL. For the same compound, the “ABSOLUTE MONOCYTE” value [1] was 0 CELLS/uL, the “ABSOLUTE SEGMENTED NEUTROPHIL” value [1] was 1111.67 CELLS/uL and the BASOPHIL [1] was 0%. For the same compound, the EOSINOPHIL [1] was 0%, the “ERYTHROCYTE COUNT” value [1] was 5.53 x10E6/uL and the HEMATOCRIT [1] was 35%. The HEMOGLOBIN [1] was 13.9 G/DL, the “LEUKOCYTE COUNT” value [1] was 11.97 x10E3/uL and the LYMPHOCYTE [1] was 90.67%. The “MEAN CORPUSCULAR HEMOGLOBIN” value [1] was 25.2 pg, the “MEAN CORPUSCULAR HEMOGLOBIN CONCENTRATION” value [1] was 39.77 G/DL and the “MEAN CORPUSCULAR VOLUME” value [1] was 63.37 fL. The MONOCYTE [1] was 0%, the NEUTROPHIL [1] was 9.33% and the “NUCLEATED RED BLOOD CELLS” value [1] was 0 /100WBC. The “PLATELET COUNT” value [1] was 1189 x10E3/uL, the “ALANINE AMINOTRANSFERASE” value [1] was 54.33 u/L and the ALBUMIN [1] was 4.2 G/DL. The “ALKALINE PHOSPHATASE” value [1] was 319 u/L, the “ASPARTATE AMINOTRANSFERASE” value [1] was 78.33 u/L and the “BLOOD UREA NITROGEN” value [1] was 16.67 mg/dL. The “CARBON DIOXIDE” value [1] was 24.67 mmol/L, the CHLORIDE [1] was 102.33 MEQ/L and the CHOLESTEROL [1] was 81.33 mg/dL. For the same compound, the “CREATINE PHOSPHOKINASE” value [1] was 352 u/L, the CREATININE [1] was 0.18 mg/dL and the GLUCOSE [1] was 154.67 mg/dL. The “LACTATE DEHYDROGENASE” value [1] was 179 u/L, the LIPASE [1] was 9.33 u/L and the PHOSPHORUS [1] was 12.83 mg/dL. The POTASSIUM [1] was 6.38 MEQ/L, the SODIUM [1] was 144.7 MEQ/L and the “TOTAL BILIRUBIN” value [1] was 0.23 mg/dL. The “TOTAL PROTEIN” value [1] was 6 G/DL, the “URIC ACID” value [1] was 1.6 mg/dL and the “ABSOLUTE BASOPHIL” value [2] was 0 CELLS/uL. The “ABSOLUTE EOSINOPHIL” value [2] was 0 CELLS/uL, the “ABSOLUTE LYMPHOCYTE” value [2] was 11965.67 CELLS/uL and the “ABSOLUTE MONOCYTE” value [2] was 420.67 CELLS/uL. For the same compound, the “ABSOLUTE SEGMENTED NEUTROPHIL” value [2] was 2847 CELLS/uL, the BASOPHIL [2] was 0% and the EOSINOPHIL [2] was 0%. The “ERYTHROCYTE COUNT” value [2] was 6.58 x10E6/uL, the HEMATOCRIT [2] was 40.53% and the HEMOGLOBIN [2] was 15.87 G/DL. The “LEUKOCYTE COUNT” value [2] was 15.23 x10E3/uL, the LYMPHOCYTE [2] was 77.33% and the “MEAN CORPUSCULAR HEMOGLOBIN” value [2] was 24.13 pg. For the same compound, the “MEAN CORPUSCULAR HEMOGLOBIN CONCENTRATION” value [2] was 39.17 G/DL, the “MEAN CORPUSCULAR VOLUME” value [2] was 61.6 fL and the MONOCYTE [2] was 2.67%. The NEUTROPHIL [2] was 20%, the “NUCLEATED RED BLOOD CELLS” value [2] was 0 /100WBC and the “PLATELET COUNT” value [2] was 1375.67 x10E3/uL. The “ALANINE AMINOTRANSFERASE” value [2] was 80 u/L, the ALBUMIN [2] was 4.43 G/DL and the “ALKALINE PHOSPHATASE” value [2] was 350.33 u/L. For the same compound, the “ASPARTATE AMINOTRANSFERASE” value [2] was 113.67 u/L, the “BLOOD UREA NITROGEN” value [2] was 14 mg/dL and the “CARBON DIOXIDE” value [2] was 31 mmol/L. For the same compound, the CHLORIDE [2] was 96.33 MEQ/L, the CHOLESTEROL [2] was 148.67 mg/dL and the “CREATINE PHOSPHOKINASE” value [2] was 217 u/L. The CREATININE [2] was 0.21 mg/dL, the GLUCOSE [2] was 160 mg/dL and the “LACTATE DEHYDROGENASE” value [2] was 259 u/L. It also gave an LIPASE [2] of 11 u/L, a PHOSPHORUS [2] of 12.37 mg/dL and a POTASSIUM [2] of 5.97 MEQ/L. For the same compound, the SODIUM [2] was 145.43 MEQ/L, the “TOTAL BILIRUBIN” value [2] was 0.47 mg/dL and the “TOTAL PROTEIN” value [2] was 6.3 G/DL. For the same compound, the “URIC ACID” value [2] was 1.7 mg/dL, the “ABSOLUTE BASOPHIL” value [3] was 0 CELLS/uL and the “ABSOLUTE EOSINOPHIL” value [3] was 0 CELLS/uL. For the same compound, the “ABSOLUTE LYMPHOCYTE” value [3] was 11388 CELLS/uL, the “ABSOLUTE MONOCYTE” value [3] was 273 CELLS/uL and the “ABSOLUTE SEGMENTED NEUTROPHIL” value [3] was 2639 CELLS/uL. The BASOPHIL [3] was 0%, the EOSINOPHIL [3] was 0% and the “ERYTHROCYTE COUNT” value [3] was 6.24 x10E6/uL. For the same compound, the HEMATOCRIT [3] was 38.2%, the HEMOGLOBIN [3] was 15.25 G/DL and the “LEUKOCYTE COUNT” value [3] was 14.3 x10E3/uL. For the same compound, the LYMPHOCYTE [3] was 79%, the “MEAN CORPUSCULAR HEMOGLOBIN” value [3] was 24.5 pg and the “MEAN CORPUSCULAR HEMOGLOBIN CONCENTRATION” value [3] was 39.9 G/DL. The “MEAN CORPUSCULAR VOLUME” value [3] was 61.45 fL, the MONOCYTE [3] was 2% and the NEUTROPHIL [3] was 19%. For the same compound, the “NUCLEATED RED BLOOD CELLS” value [3] was 0 /100WBC, the “PLATELET COUNT” value [3] was 1196.5 x10E3/uL and the “ALANINE AMINOTRANSFERASE” value [3] was 114 u/L. For the same compound, the ALBUMIN [3] was 3.85 G/DL, the “ALKALINE PHOSPHATASE” value [3] was 310.5 u/L and the “ASPARTATE AMINOTRANSFERASE” value [3] was 198.5 u/L. For the same compound, the “BLOOD UREA NITROGEN” value [3] was 19 mg/dL, the “CARBON DIOXIDE” value [3] was 24.5 mmol/L and the CHLORIDE [3] was 97.5 MEQ/L. The CHOLESTEROL [3] was 104 mg/dL, the “CREATINE PHOSPHOKINASE” value [3] was 397.5 u/L and the CREATININE [3] was 0.18 mg/dL. The GLUCOSE [3] was 120.5 mg/dL, the “LACTATE DEHYDROGENASE” value [3] was 645 u/L and the LIPASE [3] was 12.5 u/L. It also gave a PHOSPHORUS [3] of 11 mg/dL, a POTASSIUM [3] of 5.77 MEQ/L and an SODIUM [3] of 142.7 MEQ/L. The “TOTAL BILIRUBIN” value [3] was 0.6 mg/dL, the “TOTAL PROTEIN” value [3] was 5.65 G/DL and the “URIC ACID” value [3] was 1.35 mg/dL.
